From patent US11098040B2, “Compounds and methods of use” (Ferro Therapeutics, Inc., priority 2018, dated 2021)

Tested on: not listed separately
Experiment: Whole blood stability, human
Assay type: in vitro ADME
Conditions: 0 min
Text: (§1) The results of the assay on stability in blood and IC50 values for pancreatic cancer cell line KP4 are given below in Table 24.

Structure (SMILES) | Whole Blood Stability % Remaining at 37° C. Human [%]
COC(=O)[C@H]1Cc2c([nH]c3ccccc23)[C@@H](c2ccc(C(=O)N3CCC(O)CC3)cc2)N1C(=O)CCl [Compound 32a] | 100.0
COC(=O)[C@H]1Cc2c([nH]c3ccccc23)[C@H](c2ccc(C(=O)OC(C)(C)C)cc2)N1C(=O)C(C)Cl (stereo partly drawn) [Compound 33] | 100.0
COC(=O)[C@H]1CC2c3ccccc3NC2[C@H](c2ccc(C(=O)OC(C)(C)C)cc2)N1C(=O)C(F)(F)Cl (stereo partly drawn) [Compound 34] | 100.0
COC(=O)[C@H]1Cc2c([nH]c3ccccc23)[C@H](c2ccc(S(=O)(=O)N3CCC(O)CC3)cc2)N1C(=O)CCl [Compound 35] | 100.0
COC(=O)[C@H]1Cc2c([nH]c3ccccc23)[C@H](c2ccc(S(=O)(=O)N3CC(O)C3)cc2)N1C(=O)CCl [Compound 37] | 100.0
CN(C)C(=O)c1ccc([C@H]2c3[nH]c4ccccc4c3C[C@H](C(=O)N(C)C)N2C(=O)CCl)cc1 [Compound 38] | 100.0
CC(C)N(C(=O)[C@H]1Cc2c([nH]c3ccccc23)[C@H](c2ccc(C(=O)N(C)C)cc2)N1C(=O)CCl)C(C)C [Compound 39] | 100.0
COC(=O)C1CCC([C@H]2c3[nH]c4ccccc4c3C[C@H](C(=O)N(C)C)N2C(=O)CCl)CC1 (stereo partly drawn) [Compound 41] | 100.0
CN(C)C(=O)[C@H]1Cc2c([nH]c3ccccc23)[C@H](C2CCN(C(=O)OC(C)(C)C)CC2)N1C(=O)CCl [Compound 42] | 100.0

Same assay, conditions: 30 min

Structure (SMILES) | Whole Blood Stability % Remaining at 37° C. Human [%]
COC(=O)[C@H]1Cc2c([nH]c3ccccc23)[C@@H](c2ccc(C(=O)N3CCC(O)CC3)cc2)N1C(=O)CCl [Compound 32a] | 1.9
COC(=O)[C@H]1Cc2c([nH]c3ccccc23)[C@H](c2ccc(C(=O)OC(C)(C)C)cc2)N1C(=O)C(C)Cl (stereo partly drawn) [Compound 33] | 104.7
COC(=O)[C@H]1CC2c3ccccc3NC2[C@H](c2ccc(C(=O)OC(C)(C)C)cc2)N1C(=O)C(F)(F)Cl (stereo partly drawn) [Compound 34] | 104.9
COC(=O)[C@H]1Cc2c([nH]c3ccccc23)[C@H](c2ccc(S(=O)(=O)N3CCC(O)CC3)cc2)N1C(=O)CCl [Compound 35] | 39.3
COC(=O)[C@H]1Cc2c([nH]c3ccccc23)[C@H](c2ccc(S(=O)(=O)N3CC(O)C3)cc2)N1C(=O)CCl [Compound 37] | 37.8
CN(C)C(=O)c1ccc([C@H]2c3[nH]c4ccccc4c3C[C@H](C(=O)N(C)C)N2C(=O)CCl)cc1 [Compound 38] | 46.2
CC(C)N(C(=O)[C@H]1Cc2c([nH]c3ccccc23)[C@H](c2ccc(C(=O)N(C)C)cc2)N1C(=O)CCl)C(C)C [Compound 39] | 64.5
COC(=O)C1CCC([C@H]2c3[nH]c4ccccc4c3C[C@H](C(=O)N(C)C)N2C(=O)CCl)CC1 (stereo partly drawn) [Compound 41] | 82.4
CN(C)C(=O)[C@H]1Cc2c([nH]c3ccccc23)[C@H](C2CCN(C(=O)OC(C)(C)C)CC2)N1C(=O)CCl [Compound 42] | 46.2

Same assay, conditions: 60 min

Structure (SMILES) | Whole Blood Stability % Remaining at 37° C. Human [%]
COC(=O)[C@H]1Cc2c([nH]c3ccccc23)[C@@H](c2ccc(C(=O)N3CCC(O)CC3)cc2)N1C(=O)CCl [Compound 32a] | 0.9
COC(=O)[C@H]1Cc2c([nH]c3ccccc23)[C@H](c2ccc(C(=O)OC(C)(C)C)cc2)N1C(=O)C(C)Cl (stereo partly drawn) [Compound 33] | 103.8
COC(=O)[C@H]1CC2c3ccccc3NC2[C@H](c2ccc(C(=O)OC(C)(C)C)cc2)N1C(=O)C(F)(F)Cl (stereo partly drawn) [Compound 34] | 113.4
COC(=O)[C@H]1Cc2c([nH]c3ccccc23)[C@H](c2ccc(S(=O)(=O)N3CCC(O)CC3)cc2)N1C(=O)CCl [Compound 35] | 20.5
COC(=O)[C@H]1Cc2c([nH]c3ccccc23)[C@H](c2ccc(S(=O)(=O)N3CC(O)C3)cc2)N1C(=O)CCl [Compound 37] | 17.9
CN(C)C(=O)c1ccc([C@H]2c3[nH]c4ccccc4c3C[C@H](C(=O)N(C)C)N2C(=O)CCl)cc1 [Compound 38] | 28.5
CC(C)N(C(=O)[C@H]1Cc2c([nH]c3ccccc23)[C@H](c2ccc(C(=O)N(C)C)cc2)N1C(=O)CCl)C(C)C [Compound 39] | 50.4
COC(=O)C1CCC([C@H]2c3[nH]c4ccccc4c3C[C@H](C(=O)N(C)C)N2C(=O)CCl)CC1 (stereo partly drawn) [Compound 41] | 100.0
CN(C)C(=O)[C@H]1Cc2c([nH]c3ccccc23)[C@H](C2CCN(C(=O)OC(C)(C)C)CC2)N1C(=O)CCl [Compound 42] | 28.5

Tested on: KP4
Experiment: Cell viability assay (CellTiter Glo), pancreatic ductal adenocarcinoma KP4
Assay type: cell-based, human
Conditions: Homo sapiens, KP-4, 96 h, pancreatic cancer cell line KP4, 96 hours, CellTiter Glo; read-out: IC50 μM KP4
Outline: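 Luminescent ATP readout (CellTiter Glo) after 96 h compound exposure, normalized to DMSO-treated cells as maximum. Compounds ran in duplicate, nine 3-fold steps from 30 μM down to 4.6 nM, final DMSO ≤0.25%; KP4 plated overnight at 1,000–10,000 cells/well. Outputs: IC50, relative IC50 or % top inhibition.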

Structure (SMILES) | IC50 [µM]
COC(=O)[C@H]1Cc2c([nH]c3ccccc23)[C@@H](c2ccc(C(=O)N3CCC(O)CC3)cc2)N1C(=O)CCl [Compound 32a] | > 1
COC(=O)[C@H]1Cc2c([nH]c3ccccc23)[C@H](c2ccc(C(=O)OC(C)(C)C)cc2)N1C(=O)C(C)Cl (stereo partly drawn) [Compound 33] | > 1
COC(=O)[C@H]1CC2c3ccccc3NC2[C@H](c2ccc(C(=O)OC(C)(C)C)cc2)N1C(=O)C(F)(F)Cl (stereo partly drawn) [Compound 34] | > 1
COC(=O)[C@H]1Cc2c([nH]c3ccccc23)[C@H](c2ccc(S(=O)(=O)N3CCC(O)CC3)cc2)N1C(=O)CCl [Compound 35] | 0.01 to 0.1
COC(=O)[C@H]1Cc2c([nH]c3ccccc23)[C@H](c2ccc(S(=O)(=O)N3CC(O)C3)cc2)N1C(=O)CCl [Compound 37] | 0.01 to 0.1
CN(C)C(=O)c1ccc([C@H]2c3[nH]c4ccccc4c3C[C@H](C(=O)N(C)C)N2C(=O)CCl)cc1 [Compound 38] | 0.5 to 1
CC(C)N(C(=O)[C@H]1Cc2c([nH]c3ccccc23)[C@H](c2ccc(C(=O)N(C)C)cc2)N1C(=O)CCl)C(C)C [Compound 39] | 0.1 to 0.5
COC(=O)C1CCC([C@H]2c3[nH]c4ccccc4c3C[C@H](C(=O)N(C)C)N2C(=O)CCl)CC1 (stereo partly drawn) [Compound 41] | 0.01 to 0.1
CN(C)C(=O)[C@H]1Cc2c([nH]c3ccccc23)[C@H](C2CCN(C(=O)OC(C)(C)C)CC2)N1C(=O)CCl [Compound 42] | > 1

Tested on: not listed separately
Experiment: Whole blood stability, mouse
Assay type: in vitro ADME
Conditions: 0 min
Text: as §1

Structure (SMILES) | Whole Blood Stability % Remaining at 37° C. Mouse [%]
COC(=O)[C@H]1Cc2c([nH]c3ccccc23)[C@@H](c2ccc(C(=O)N3CCC(O)CC3)cc2)N1C(=O)CCl [Compound 32a] | 100.0
COC(=O)[C@H]1Cc2c([nH]c3ccccc23)[C@H](c2ccc(C(=O)OC(C)(C)C)cc2)N1C(=O)C(C)Cl (stereo partly drawn) [Compound 33] | 100.0
COC(=O)[C@H]1CC2c3ccccc3NC2[C@H](c2ccc(C(=O)OC(C)(C)C)cc2)N1C(=O)C(F)(F)Cl (stereo partly drawn) [Compound 34] | 100.0
COC(=O)[C@H]1Cc2c([nH]c3ccccc23)[C@H](c2ccc(S(=O)(=O)N3CCC(O)CC3)cc2)N1C(=O)CCl [Compound 35] | 100.0
COC(=O)[C@H]1Cc2c([nH]c3ccccc23)[C@H](c2ccc(S(=O)(=O)N3CC(O)C3)cc2)N1C(=O)CCl [Compound 37] | 100.0
CN(C)C(=O)c1ccc([C@H]2c3[nH]c4ccccc4c3C[C@H](C(=O)N(C)C)N2C(=O)CCl)cc1 [Compound 38] | 100.0
CC(C)N(C(=O)[C@H]1Cc2c([nH]c3ccccc23)[C@H](c2ccc(C(=O)N(C)C)cc2)N1C(=O)CCl)C(C)C [Compound 39] | 100.0
COC(=O)C1CCC([C@H]2c3[nH]c4ccccc4c3C[C@H](C(=O)N(C)C)N2C(=O)CCl)CC1 (stereo partly drawn) [Compound 41] | 100.0
CN(C)C(=O)[C@H]1Cc2c([nH]c3ccccc23)[C@H](C2CCN(C(=O)OC(C)(C)C)CC2)N1C(=O)CCl [Compound 42] | 100.0

Same assay, conditions: 30 min

Structure (SMILES) | Whole Blood Stability % Remaining at 37° C. Mouse [%]
COC(=O)[C@H]1Cc2c([nH]c3ccccc23)[C@@H](c2ccc(C(=O)N3CCC(O)CC3)cc2)N1C(=O)CCl [Compound 32a] | 0.0
COC(=O)[C@H]1Cc2c([nH]c3ccccc23)[C@H](c2ccc(C(=O)OC(C)(C)C)cc2)N1C(=O)C(C)Cl (stereo partly drawn) [Compound 33] | 78.9
COC(=O)[C@H]1CC2c3ccccc3NC2[C@H](c2ccc(C(=O)OC(C)(C)C)cc2)N1C(=O)C(F)(F)Cl (stereo partly drawn) [Compound 34] | 75.6
COC(=O)[C@H]1Cc2c([nH]c3ccccc23)[C@H](c2ccc(S(=O)(=O)N3CCC(O)CC3)cc2)N1C(=O)CCl [Compound 35] | 32.9
COC(=O)[C@H]1Cc2c([nH]c3ccccc23)[C@H](c2ccc(S(=O)(=O)N3CC(O)C3)cc2)N1C(=O)CCl [Compound 37] | 25.4
CN(C)C(=O)c1ccc([C@H]2c3[nH]c4ccccc4c3C[C@H](C(=O)N(C)C)N2C(=O)CCl)cc1 [Compound 38] | 72.9
CC(C)N(C(=O)[C@H]1Cc2c([nH]c3ccccc23)[C@H](c2ccc(C(=O)N(C)C)cc2)N1C(=O)CCl)C(C)C [Compound 39] | 73.2
COC(=O)C1CCC([C@H]2c3[nH]c4ccccc4c3C[C@H](C(=O)N(C)C)N2C(=O)CCl)CC1 (stereo partly drawn) [Compound 41] | 0.0
CN(C)C(=O)[C@H]1Cc2c([nH]c3ccccc23)[C@H](C2CCN(C(=O)OC(C)(C)C)CC2)N1C(=O)CCl [Compound 42] | 72.9

Same assay, conditions: 60 min

Structure (SMILES) | Whole Blood Stability % Remaining at 37° C. Mouse [%]
COC(=O)[C@H]1Cc2c([nH]c3ccccc23)[C@@H](c2ccc(C(=O)N3CCC(O)CC3)cc2)N1C(=O)CCl [Compound 32a] | 0.0
COC(=O)[C@H]1Cc2c([nH]c3ccccc23)[C@H](c2ccc(C(=O)OC(C)(C)C)cc2)N1C(=O)C(C)Cl (stereo partly drawn) [Compound 33] | 69.3
COC(=O)[C@H]1CC2c3ccccc3NC2[C@H](c2ccc(C(=O)OC(C)(C)C)cc2)N1C(=O)C(F)(F)Cl (stereo partly drawn) [Compound 34] | 80.6
COC(=O)[C@H]1Cc2c([nH]c3ccccc23)[C@H](c2ccc(S(=O)(=O)N3CCC(O)CC3)cc2)N1C(=O)CCl [Compound 35] | 14.8
COC(=O)[C@H]1Cc2c([nH]c3ccccc23)[C@H](c2ccc(S(=O)(=O)N3CC(O)C3)cc2)N1C(=O)CCl [Compound 37] | 9.8
CN(C)C(=O)c1ccc([C@H]2c3[nH]c4ccccc4c3C[C@H](C(=O)N(C)C)N2C(=O)CCl)cc1 [Compound 38] | 62.0
CC(C)N(C(=O)[C@H]1Cc2c([nH]c3ccccc23)[C@H](c2ccc(C(=O)N(C)C)cc2)N1C(=O)CCl)C(C)C [Compound 39] | 60.4
COC(=O)C1CCC([C@H]2c3[nH]c4ccccc4c3C[C@H](C(=O)N(C)C)N2C(=O)CCl)CC1 (stereo partly drawn) [Compound 41] | 0.0
CN(C)C(=O)[C@H]1Cc2c([nH]c3ccccc23)[C@H](C2CCN(C(=O)OC(C)(C)C)CC2)N1C(=O)CCl [Compound 42] | 62.0
